Source: US9271971B2, “Pyrido[3,4-B]indoles and methods of use” (Medivation Technologies, Inc., priority 2009, dated 2016)

Columns and labels:
[1] = target: human recombinant histamine H1 receptor (Homo sapiens, UniProt P35367); test: Histamine H1 radioligand binding assay; conditions: [3H]Pyrilamine specific binding; for inhibition at 1 µM: read-out: Percentage Inhibition, Histamine Binding (1 μM) H1
Description: To evaluate in radioligand binding assays the activity of compounds of the invention, human recombinant histamine H1 receptor expressed in Chinese hamster ovary (CHO) cells [De Backer, M. D. et al., Biochem. Biophys. Res. Comm. (1993), 197(3):1601] in a modified Tris-HCl buffer (50 mM Tris-HCl, pH 7.4, 2 mM MgCl2, 100 mM NaCl, 250 mM Sucrose) was used. Compounds of the invention were incubated with 1.2 nM [^3H]Pyrilamine for 180 min. at 25° C. Non-specific binding was estimated in the presence of 1 μM pyrilamine. Receptor proteins were filtered and washed, the filters were then counted to determine [^3H]Pyrilamine specifically bound. Compounds were screened at 1 μM or lower, using 1% DMSO as vehicle. Biochemical assay results are presented as the percent inhibition of specific binding in Table 2.

[2] = target: T1, human recombinant adrenergic α2A receptor (Homo sapiens, UniProt P08913); test: Adrenergic α2A radioligand binding assay; conditions: [3H]MK-912 specific binding; for inhibition at 0.1 µM: read-out: Percent Inhibition of ligand binding, Adrenergic (0.1 μM ligand conc.) α2A; for inhibition at 1 µM: read-out: Percent Inhibition of ligand binding, Adrenergic (1 μM ligand conc.) α2A
T1 construct: expressed in transfected cells; host or cells: insect Sf9 cells
T1 sequence (P08913 1-465): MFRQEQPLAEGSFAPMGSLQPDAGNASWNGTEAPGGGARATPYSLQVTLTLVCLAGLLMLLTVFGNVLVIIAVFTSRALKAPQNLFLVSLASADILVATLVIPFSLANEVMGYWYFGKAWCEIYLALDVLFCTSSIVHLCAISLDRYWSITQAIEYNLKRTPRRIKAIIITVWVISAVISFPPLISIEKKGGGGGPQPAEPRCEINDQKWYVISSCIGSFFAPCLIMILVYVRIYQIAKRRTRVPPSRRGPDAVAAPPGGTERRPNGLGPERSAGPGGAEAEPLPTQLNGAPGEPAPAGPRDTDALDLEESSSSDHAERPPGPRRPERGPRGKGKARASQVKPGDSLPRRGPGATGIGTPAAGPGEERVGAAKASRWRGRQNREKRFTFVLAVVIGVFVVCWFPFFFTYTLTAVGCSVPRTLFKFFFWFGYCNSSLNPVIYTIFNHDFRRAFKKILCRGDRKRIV
Description: To evaluate in radioligand binding assays the activity of compounds of the invention, human recombinant adrenergic α2A receptor expressed in insect Sf9 cells [Uhlen, S et al. J. Pharmacol. Exp. Ther. (1994), 271:1558] in a modified Tris-HCl buffer (50 mM Tris-HCl, pH 7.4, 12.5 mM MgCl2, 2 mM EDTA) was used. Compounds of invention were incubated with 1 nM [^3H]MK-912 for 60 min. at 25° C. MK912 was (2S-trans)-1,3,4,5′,6,6′,7,12b-octahydro-1′,3′-dimethyl-spiro[2H-benzofuro[2,3-a]quinolizine-2,4′(1′H)-pyrimidin]-2′(3′H)-one hydrochloride Non-specific binding was estimated in the presence of 10 μM WB-4101 (2-(2,6-dimethoxyphenoxyethyl)aminomethyl-1,4-benzodioxane hydrochloride). Receptor proteins were filtered and washed, the filters were then counted to determine [^3H]MK-912 specifically bound. Compounds were screened at 1 μM or lower, using 1% DMSO as vehicle. Compounds of the invention were tested in this biochemical assay. Biochemical assay results for representative compounds were presented as the percent inhibition of specific binding in Table 3.

[3] = target: T2, human recombinant adrenergic α1D receptor (Homo sapiens, UniProt P25100); test: Adrenergic α1D radioligand binding assay; conditions: [3H]Prozosin specific binding; for inhibition at 0.1 µM: read-out: Percent Inhibition of ligand binding, Adrenergic (0.1 μM ligand conc.) α1D; for inhibition at 1 µM: read-out: Percent Inhibition of ligand binding, Adrenergic (1 μM ligand conc.) α1D
T2 construct: expressed in transfected cells; host or cells: human embryonic kidney (HEK-293) cells
T2 sequence (P25100 1-572): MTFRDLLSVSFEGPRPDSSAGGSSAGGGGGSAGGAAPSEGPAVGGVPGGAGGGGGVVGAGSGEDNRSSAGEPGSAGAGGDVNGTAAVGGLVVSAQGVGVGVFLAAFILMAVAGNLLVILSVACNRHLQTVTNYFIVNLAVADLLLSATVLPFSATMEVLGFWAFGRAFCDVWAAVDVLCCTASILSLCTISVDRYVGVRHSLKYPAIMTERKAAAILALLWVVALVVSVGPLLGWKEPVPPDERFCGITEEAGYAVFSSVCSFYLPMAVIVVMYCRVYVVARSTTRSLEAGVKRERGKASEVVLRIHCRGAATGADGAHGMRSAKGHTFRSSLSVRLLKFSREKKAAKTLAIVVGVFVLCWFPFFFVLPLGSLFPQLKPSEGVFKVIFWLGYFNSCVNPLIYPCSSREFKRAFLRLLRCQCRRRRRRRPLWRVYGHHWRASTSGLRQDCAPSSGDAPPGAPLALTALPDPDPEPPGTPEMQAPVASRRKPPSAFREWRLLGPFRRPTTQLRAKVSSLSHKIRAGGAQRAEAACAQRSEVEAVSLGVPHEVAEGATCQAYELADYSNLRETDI
Description: To evaluate in radioligand binding assays the activity of compounds of the invention, human recombinant adrenergic α1D receptor expressed in human embryonic kidney (HEK-293) cells [Kenny, B. A. et al. Br. J. Pharmacol. (1995), 115(6):981] in a 50 mM Tris-HCl buffer, pH 7.4, was used. Compounds of invention were incubated with 0.6 nM [^3H]Prozosin for 60 min. at 25° C. Non-specific binding was estimated in the presence of 10 μM phentolamine. Receptor proteins were filtered and washed, the filters were then counted to determine [^3H]Prozosin specifically bound. Compounds were screened at 1 μM or lower, using 1% DMSO as vehicle. Compounds of the invention were tested in this biochemical assay. Biochemical assay results for representative compounds were presented as the percent inhibition of specific binding in Table 3.

Chain of human recombinant histamine H1 receptor (P35367 whole entry): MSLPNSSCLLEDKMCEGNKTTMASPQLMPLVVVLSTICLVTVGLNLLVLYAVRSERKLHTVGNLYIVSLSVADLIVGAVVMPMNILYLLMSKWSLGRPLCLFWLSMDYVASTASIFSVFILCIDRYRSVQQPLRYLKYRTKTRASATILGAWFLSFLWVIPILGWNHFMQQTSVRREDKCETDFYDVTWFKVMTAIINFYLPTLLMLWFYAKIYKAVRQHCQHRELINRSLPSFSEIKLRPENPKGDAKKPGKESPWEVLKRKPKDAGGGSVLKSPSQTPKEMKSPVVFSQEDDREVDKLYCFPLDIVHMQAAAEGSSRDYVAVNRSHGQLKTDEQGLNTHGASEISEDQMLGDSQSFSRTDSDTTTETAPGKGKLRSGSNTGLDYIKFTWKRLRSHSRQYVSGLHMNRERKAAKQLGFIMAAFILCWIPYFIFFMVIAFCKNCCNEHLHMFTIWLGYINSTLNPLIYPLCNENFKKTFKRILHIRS

Row | Structure (SMILES) | inhibition at 1 µM [1] | inhibition at 0.1 µM [2] | inhibition at 0.1 µM [3] | Percentage Inhibition, Histamine Binding (1 μM) H1 ([1]; 1 µM) | inhibition at 1 µM [2] | inhibition at 1 µM [3]
1 | Cc1ccc2c(c1)c1c(n2C(=O)Cc2ccc(Cl)cc2)CN2CCC1C2 (stereo not drawn) [Compound 36] | 45% | 24% | -2% | – | – | –
2 | C=C(Cn1c2c(c3cc(C)ccc31)C1CCN(C2)C1)c1ccc(F)cc1 (stereo not drawn) [Compound 3] | 59% | – | – | 60% | 93% | 93%
3 | Cc1ccc(C(C)(O)Cn2c3c(c4cc(C)ccc42)C2CCN(C3)C2)cc1 (stereo not drawn) [Compound 20] | 21% | – | – | – | 28% | 29%
4 | C/C(=C\n1c2c(c3cc(C)ccc31)C1CCN(C2)C1)c1ccc(Cl)cc1 (stereo not drawn) [Compound 32] | 85% | 45% | 9% | – | 96% | 80%
5 | Cc1ccc2c(c1)c1c(n2CC(C)(O)c2ccc(F)cc2F)CN2CCC1C2 (stereo not drawn) [Compound 17] | 16% | – | – | – | 4% | 19%
6 | Cc1ccc2c(c1)c1c(n2CCc2ccc(C(F)(F)F)nc2)CN2CCC1C2 (stereo not drawn) [Compound 1] | 32% | – | – | – | 25% | 51%
7 | Cc1ccc2c(c1)c1c(n2CC(=O)N2CCC(C)CC2)CN2CCC1C2 (stereo not drawn) [Compound 25] | 30% | – | – | – | -7% | -1%
8 | Cc1ccc2c(c1)c1c(n2CC(=O)c2ccc(F)cc2)CN2CCC1C2 (stereo not drawn) [Compound 28] | 64% | – | – | – | 86% | 49%
9 | COc1ccc(/C(C)=C/n2c3c(c4cc(C)ccc42)C2CCN(C3)C2)cc1 (stereo not drawn) [Compound 45] | 26% | 4% | -1% | – | – | –
10 | Cc1ccc2c(c1)c1c(n2CC(C)(O)c2ccc(F)c(Cl)c2)CN2CCC1C2 (stereo not drawn) [Compound 18] | 21% | – | – | – | 30% | 1%
11 | Cc1ccc2c(c1)c1c(n2CC(=O)N(C)C)CN2CCC1C2 (stereo not drawn) [Compound 27] | 10% | – | – | – | 5% | 9%
